Assay results from patent publication US20080280824A1, “COMPOSITIONS AND METHODS FOR TREATMENT OF CANCER OR NEURODEGENERATIVE DISEASE WITH PEPTIDE BASED MICROTUBULE STABILIZERS OR INHIBITORS” (University of Washington, priority 2007, published 2008).

Legend:
βH crystallin = test: In vitro chaperone assay, thermal aggregation of βH crystallin; type: biochemical
citrate synthase = test: In vitro chaperone assay, thermal aggregation of citrate synthase; type: biochemical
alcohol dehydrogenase = test: In vitro chaperone assay, thermal aggregation of alcohol dehydrogenase; type: biochemical
Bovine brain tubulin [1] = molecular target: T1, Bovine brain tubulin (Bos taurus, UniProt P81947+Q6B856); test: Microtubule assembly assay (DAPI fluorescence, Microtubule Stabilization/Destabilization Assay kit); type: biochemical
T1 construct: Bovine brain tubulin was dissolved to 200 μM; purchased Cytoskeleton; Denver, Colo; host or cells: bovine brain
Experimental: Microtubule assembly assays. The effect of selected αB crystallin peptides on the in vitro assembly of tubulin into microtubules was evaluated using the Microtubule Stabilization/Destabilization Assay kit (Cytoskeleton; Denver, Colo.) as described previously. Bonne et al., J Biol Chem 260:2819-25, 1985. Bovine brain tubulin was dissolved to 200 μM in 80 mM PIPES, 2 mM MgCl2, 0.5 mM EGTA, 10 μM DAPI, 1 mM GTP pH 6.9. 8.5 μl of the tubulin was mixed with 40 μl of 80 mM PIPES, 2 mM MgCl2, 0.5 mM EGTA, 7.4 μM DAPI, 16% Glycerol, 1.1 mM GTP pH 6.9 and 4.3 μl of 2 mM peptide in 2.5% DMSO, 2 mM Paclitaxel (polymerization promoter) in 100% DMSO, 15 mM CaCl2 (polymerization inhibitor) in water, or 2.5% DMSO only. Microtubule assembly was monitored by measuring the fluorescence of DAPI, a molecule whose emission fluorescence at λ=460 is enhanced 8-fold when it is incorporated into assembled microtubules. Bonne et al., J Biol Chem 260:2819-25, 1985. Fluorescence of samples were continuously read on a Perkin Elmer Victor^3 V fluorescence plate reader (Excitation λ=355 nm, Emission λ=460 nm) at 37° C. for 45 minutes.
The effect of wt and three mutant αB crystallins, Δ41-58, αAβ8, and Δ155-165 on the in vitro assembly of tubulin into microtubules was evaluated using the Microtubule Stabilization/Destabilization Assay kit described above (Cytoskeleton; Denver, Colo.). Bovine brain tubulin was dissolved to 200 μM in 80 mM PIPES, 2 mM MgCl2, 0.5 mM EGTA, 10 μM DAPI, 1 mM GTP pH 6.9. 8.5 μl of the tubulin was mixed with 40 μl of 80 mM PIPES, 2 mM MgCl2, 0.5 mM EGTA, 7.4 μM DAPI, 16% Glycerol, 1.1 mM GTP pH 6.9 and 4.3 μl of 80 μM protein in 20 mM Tris-Cl, pH8.0 or Tris-Cl buffer only. Fluorescence of samples were continuously read on a Perkin Elmer Victor^3 V fluorescence plate reader (Excitation λ=355 nm, Emission λ=460 nm) at 37° C. for 45 minutes.

pre-formed microtubules = test: Microtubule disassembly assay (DAPI fluorescence); type: biochemical, Bovine
Experimental: Microtubule disassembly assays. The effect of αB crystallin peptides and mutants on the in vitro disassembly of microtubules into soluble tubulin was evaluated using the Microtubule Stabilization/Destabilization Assay kit described above (Cytoskeleton; Denver, Colo.) as described previously^36. 34 μM pre-formed microtubules were incubated with the αB crystallin peptides (170 μM) or wt and mutant αB crystallins (6.8 μM and 34 μM) at 23° C. for 20 minutes. Incubation of microtubules at 23° C. results in the spontaneous disassembly of microtubules. The decrease in DAPI fluorescence at λ=460 nm was measured continuously for 20 minutes by exciting the samples at λ=355 nm using a Perkin Elmer Victor^3 V fluorescence plate reader.

Bovine brain tubulin [2] = test: Tubulin thermal aggregation assay (absorbance at 340 nm); type: biochemical
Experimental: Tubulin aggregation assays. The effect of αB crystallin peptides and mutants on the thermal aggregation of tubulin was evaluated using ultra-violet spectroscopy. Bovine brain tubulin was dissolved to 200 μM in 80 mM PIPES, 2 mM MgCl2, 0.5 mM EGTA, pH 6.9. 4.25 μl of 0.08, 0.4, or 2 mM test peptide or protein was diluted into 40 μl of 80 mM PIPES, 2 mM MgCl2, 0.5 mM EGTA, pH 6.9. 8.5 μl of the 200 μM tubulin was added to each sample. Samples were heated at 52° C. and the absorbance at λ=340 nm was measured continuously for 60 minutes using a Pharmacia Biotech Ultrospec 3000. GTP and glycerol were not present in the samples because they induce the assembly of microtubules.

T1 sequence (P81947 whole entry): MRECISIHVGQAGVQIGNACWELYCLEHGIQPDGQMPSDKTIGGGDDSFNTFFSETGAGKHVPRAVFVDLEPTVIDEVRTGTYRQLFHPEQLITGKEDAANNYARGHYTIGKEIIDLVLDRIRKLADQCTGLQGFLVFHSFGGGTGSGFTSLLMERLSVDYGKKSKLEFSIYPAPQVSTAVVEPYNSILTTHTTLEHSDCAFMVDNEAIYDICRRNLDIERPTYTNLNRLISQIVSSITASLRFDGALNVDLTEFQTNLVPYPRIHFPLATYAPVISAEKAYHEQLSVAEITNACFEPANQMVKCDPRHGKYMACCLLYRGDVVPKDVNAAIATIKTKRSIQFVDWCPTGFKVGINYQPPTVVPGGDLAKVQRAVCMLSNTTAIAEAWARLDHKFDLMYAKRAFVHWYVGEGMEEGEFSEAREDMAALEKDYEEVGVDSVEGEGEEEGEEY
T1 sequence (Q6B856 whole entry): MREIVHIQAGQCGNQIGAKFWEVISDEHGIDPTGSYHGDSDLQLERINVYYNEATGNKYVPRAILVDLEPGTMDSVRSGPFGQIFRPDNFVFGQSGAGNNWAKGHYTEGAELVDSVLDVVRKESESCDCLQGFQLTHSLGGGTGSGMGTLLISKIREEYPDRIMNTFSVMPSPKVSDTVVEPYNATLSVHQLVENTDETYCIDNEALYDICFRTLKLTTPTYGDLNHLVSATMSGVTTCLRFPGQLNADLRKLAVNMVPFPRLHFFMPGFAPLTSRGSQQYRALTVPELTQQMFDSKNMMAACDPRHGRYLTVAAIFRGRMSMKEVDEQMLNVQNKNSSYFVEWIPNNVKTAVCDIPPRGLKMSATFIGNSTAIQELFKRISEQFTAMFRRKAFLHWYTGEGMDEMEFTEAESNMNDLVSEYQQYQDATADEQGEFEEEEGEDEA

In the case of LTITSSLSDGV, the “effect on thermal aggregation of βH crystallin” value (βH crystallin) is reported as “inhibited”, the “effect on thermal aggregation of citrate synthase” value (citrate synthase) is reported as “inhibited” and the “effect on thermal aggregation of alcohol dehydrogenase” value (alcohol dehydrogenase) is reported as “inhibited”.

For RTIPITRE, the “effect on thermal aggregation of βH crystallin” value (βH crystallin) was “inhibited”, the “effect on thermal aggregation of citrate synthase” value (citrate synthase) was “inhibited” and the “effect on thermal aggregation of alcohol dehydrogenase” value (alcohol dehydrogenase) was “inhibited”.

B1: αAβ8: human αB crystallin mutant, β8 sequence 131LTITSSLS138 replaced with homologous β8 sequence of human αA crystallin (protein)
chain: MDIAIHHPWIRRPFFPFHSPSRLFDQFFGEHLLESDLFPTSTSLSPFYLRPPSFLRAPSWFDTGLSEMRLEKDRFSVNLDVKHFSPEELKVKVLGDVIEVHGKHEERQDEHGFISREFHRKYRIPADVDPSALSCSLSSDGVLTVNGPRKQVSGPERTIPITREEKPAVTAAPKK
With B1 the “microtubule assembly relative to wt αB crystallin” value (Bovine brain tubulin [1]; mutant αB crystallin, FIG. 4) was “increased”, the “effect on microtubule assembly, vs absence of αB crystallin” value (Bovine brain tubulin [1]; wt or mutant αB crystallin protein, tubulin alone normalized to 1.0) was “increased” and the “microtubule disassembly relative to wt αB crystallin” value (pre-formed microtubules; mutant αB crystallin, FIG. 4) was “decreased”. The “effect on microtubule disassembly (words), vs absence of αB crystallin” value (pre-formed microtubules; wt or mutant αB crystallin (6.8 μM and 34 μM), 34 μM microtubules, 23° C., 20 minutes) was “completely inhibited”, the “tubulin aggregation relative to wt αB crystallin” value (Bovine brain tubulin [2]; mutant αB crystallin, FIG. 4) was “unchanged” and the “effect on tubulin aggregation, vs absence of αB crystallin” value (Bovine brain tubulin [2]; wt or mutant αB crystallin protein, 52° C., 60 minutes) was “decreased”.
